Measured values published in patent publication US8592421B2, “Cyclic bioisosters of purine system derivatives and a pharmaceutical composition based thereon” (priority 2003, dated 2013).

Tests used:
[1] = Morphine abstinence model: nitrites/nitrates NOX− in blood plasma, liver and brain; assay type: in vivo, rats Wistar; conditions: 20.0 mg/kg intramuscularly; for Nitrites in liver: control 0.260 ± 0.023; for Nitrites in brain: Cortex of cerebrum: control 4.63 ± 0.29; for Nitrites in brain: Mesencephalon: control 5.66 ± 0.19; for Nitrites in brain: Hypothalamus: control 6.57 ± 0.50; for Nitrites in blood plasma: control 18.30 ± 2.14
Method: (§1) The experiments were carried out on rats in series of 7 animals on each compound according to the invention. Non-morphinized animal with not administered with compounds according to the invention were used as a control group. […] Then the rats were decapitated, the blood from somnolent arteries was collected in test tubes with solution EDTA as an anticoagulant, centrifuged at 1500 g for 15 minutes at 4° C.
To estimate the intensity of metabolism of nitrogen oxide in rats, quantitative determination of stable metabolites of nitrogen oxide—nitrites and nitrates NOX^− in the blood plasma, supernatanates of the liver and thymus gland, a study was conducted by a spectrometric method, and in the brain supernatanates by a […] method.
The spectrometric method is based the reaction of nitrites with the Griss reagent (a mixture of 2% solution of sulfanilamide and 0.2% N-(1-naphthyl)ethylene diamine. At the first step the nitrite reacts with sulfanilamide with formation of diazonium salt, and then with the second component to form azo dye with an adsorption maximum at 540 nm. For reduction of nitrates into nitrites, a fermentative method was used with bacterial reductase nitrate (Grisham M. B. et al., 1995). The samples of plasma and supernathant of the liver deproteinizated at 100° C. for 5 minutes incubated for 30 minutes at 37° C. in 50.0 mM of HEPES pH 7.4 in the presence of 0.2 unit/ml of Aspergillus reductase nitrate, 5.0 mkM of FAD and 0.1 mM of NAD-Ph. At the end of the reaction lactate dehydrogenase and pyruvate were added for isolation of NAD-Ph interfering with the Griss reaction. Then the Griss reagent was added and after 10-minute incubation the light absorption of the samples was measured at 540 nm. To amount of NOX^− was calculated using sodium nitrate as a standard.
The fluorometric method is based on calculation of the nitrite level by the intensity fluorescence of 2,3-diaminonaphthotriazole, a product of reaction of 2,3-diaminonaphthalene (DAN) and nitrite in an acidic medium (Misko T. R., Schilling R. J., Salvemini D. et al. “A fluorometric assay for the measurement of nitrite of biological samples”. Anal. Biochem., 1993, v. 214, p. 11-16). The brain supernatants deproteinizated at 100° C. were placed in a nitrite regenerating system containing 0.125 unit/ml of nitrate reductases, 25 mkM NADPh and 25 mkM FAD prepared in a 20-mM Tris-HCl buffer with pH 7.6 and incubated for 30 minutes at 37° C. The lactate dehydrogenase/pyruvate system was used for oxidation of the NADPh. Then 316 mkM of the DAN solution in 0.62 M of hydrochloric acids were added and the mixture was incubated for 10 minutes in darkness.
280 mM of NaOH were added for stabilization of the fluorescence of the formed 2,3-diaminonaphthotriazole. The fluorescence intensity was measured in the spectrofluorimeter Hitachi F-3000 at a wavelength of excitation of 365 nm and an emission of 405 nm. The concentration of NOX^− in the brain was calculated by means of a standard solution of sodium nitrate.

plasma hemostasis = experiment: Partial activated thromboplastin time (PATT) after intravenous administration; assay type: in vivo, rabbit
Method: The static parameters of the blood and plasma coagulation (partial activated thromboplastin time, thrombin time, maximum coagulation activity (test for auto coagulation) were determined using the Behnk Electronic coagulometer (Germany). The operating principle of this instrument is based on the fact that the formed blood clot breaks the contacts of the pulse counter in the flask-pin circuit, said pin permanently oscillating in a vertical plane. The moment of formation of the clot is registered by stopping the stop watch hand.
The measurements were effected at a constant temperature of 37° C. maintained by a temperature control unit.

[2] = Chronic toxicity of suppositories: indexes of peripheral blood; assay type: in vivo, rats; parameters: Thrombocytes: unit not given here; conditions: male rats, suppositories rectally; for Basophiles / Juveniles: 1 month/2 months (one value given), control 0
[3] = Morphine abstinence model: indicator enzymes ALT, AST, γ-GTP in blood plasma; conditions: 20.0 mg/kg intramuscularly three times a day; for γ-GTP in blood plasma, Ci: control 6.261 ± 1.80; for ALT in blood plasma, Ci: control 106.76 ± 111.35; for AST in blood plasma, Ci: control 179.881 ± 11.94
Method: as §1
To estimate possible hepatoprotective action of the compounds according to the invention under conditions of development of an oxidizing stress in the liver cells, effect of these compounds on the most important biochemical blood indexes, in particular, on the content in blood plasma of indicator enzyme of aspartateaminotransferase (AST), alanineaminotransferase (ALT), γ-glutamiletranspeptidase (γ-GTP) was investigated. The content of enzymes was estimated by their catalyzing activity in blood plasma.
The activity of AST, ALT and γ-GTP was determined by means of diagnostic sets DiaSys, Germany.

With O=c1[nH][nH]c(=O)c2c(Br)ncnc12.[K] [Compound 37, potassium salt of 4-bromine-pyrimido[4,5-D]-6H-pyridazine-5,8-dione] the Nitrites in liver ([1]; Control + Compound) was 0.262 ± 0.018 nmol/mg of protein, the “Nitrites in brain: Cortex of cerebrum” value ([1]; Control + Compound) was 4.36 ± 0.24 nmol/mg of protein and the “Nitrites in brain: Mesencephalon” value ([1]; Control + Compound) was 6.84 ± 0.56 nmol/mg of protein. For the same molecule, the “Nitrites in brain: Hypothalamus” value ([1]; Control + Compound) was 6.79 ± 0.92 nmol/mg of protein, the “Nitrites in blood plasma” value ([1]; Control + Compound) was 16.13 ± 1.80 mkmol/ml and the Nitrites in liver ([1]; Control + Morphine + compound) was 0.274 ± 0.01 nmol/mg of protein. For the same molecule, the “Nitrites in brain: Cortex of cerebrum” value ([1]; Control + Morphine + compound) was 4.77 ± 0.28 nmol/mg of protein, the “Nitrites in brain: Mesencephalon” value ([1]; Control + Morphine + compound) was 5.63 ± 0.37 nmol/mg of protein and the “Nitrites in brain: Hypothalamus” value ([1]; Control + Morphine + compound) was 6.52 ± 0.83 nmol/mg of protein. For the same molecule, the “Nitrites in blood plasma” value ([1]; Control + Morphine + compound) was 15.33 ± 0.87 mkmol/ml, the “PATT, T” value (plasma hemostasis; 15.0 mg/kg intravenously, after 15 minutes, control 37.0 ± 0.2) was 37.0 ± 0.2 s and the “PATT, T” value (plasma hemostasis; 15.0 mg/kg intravenously, after 30 minutes, control 37.0 ± 0.2) was 37.1 ± 0.1 s. The “PATT, T” value (plasma hemostasis; 15.0 mg/kg intravenously, after 60 minutes, control 37.0 ± 0.2) was 37.0 ± 0.2 s, the “PATT, T” value (plasma hemostasis; 15.0 mg/kg intravenously, after 120 minutes, control 37.0 ± 0.2) was 36.9 ± 0.1 s and the “PATT, T” value (plasma hemostasis; 30.0 mg/kg intravenously, after 15 minutes, control 33.3 ± 0.8) was 33.1 ± 0.1 s. The “PATT, T” value (plasma hemostasis; 30.0 mg/kg intravenously, after 30 minutes, control 33.3 ± 0.8) was 33.3 ± 0.1 s, the “PATT, T” value (plasma hemostasis; 30.0 mg/kg intravenously, after 60 minutes, control 33.3 ± 0.8) was 33.3 ± 0.2 s and the “PATT, T” value (plasma hemostasis; 30.0 mg/kg intravenously, after 120 minutes, control 33.3 ± 0.8) was 33.0 ± 0.4 s. The “PATT, T” value (plasma hemostasis; 60.0 mg/kg intravenously, after 15 minutes, control 32.5 ± 0.3) was 32.5 ± 0.1 s, the “PATT, T” value (plasma hemostasis; 60.0 mg/kg intravenously, after 30 minutes, control 32.5 ± 0.3) was 32.3 ± 0.2 s and the “PATT, T” value (plasma hemostasis; 60.0 mg/kg intravenously, after 60 minutes, control 32.5 ± 0.3) was 32.4 ± 0.1 s. The “PATT, T” value (plasma hemostasis; 60.0 mg/kg intravenously, after 120 minutes, control 32.5 ± 0.3) was 32.6 ± 0.3 s, the “effect on the PATT” value (plasma hemostasis; doses 15.0, 30.0, 60.0 mg/kg) was “do not affect the PATT” and the Basophiles ([2]; 50 mg/kg) was 0%. The Juveniles ([2]; 50 mg/kg) was 0%, the Stab neutrophil ([2]; 50 mg/kg, 1 month, control 0.8 ± 0.4) was 1.3 ± 0.5% and the REE ([2]; 50 mg/kg, 1 month, control 2.2 ± 0.4) was 1.8 ± 0.3 mm/h. The Reticulocytes ([2]; 50 mg/kg, 1 month, control 2.8%0.3) was 2.6 ± 0.1%, the Eosinophiles ([2]; 50 mg/kg, 1 month, control 4.0 + 0.3) was 3.8 ± 0.8% and the Erythrocytes ([2]; 50 mg/kg, 1 month, control 5.6 ± 0.1) was 5.6 ± 0.2 mln/mm^3. It also gave a Hemoglobin ([2]; 50 mg/kg, 1 month, control 10.5 ± 0.2) of 10.5 ± 0.1 mmol/L, a Leukocyte ([2]; 50 mg/kg, 1 month, control 17.4 ± 1.3) of 14.9 ± 1.5 thousand/mm^3 and a Haematocrite ([2]; 50 mg/kg, 1 month, control 45.9 ± 1.7) of 47.8 ± 1.4%. For the same molecule, the “Average volume of erythrocytes” value ([2]; 50 mg/kg, 1 month, control 81.4 ± 1.7) was 83.9 ± 1.7 Mkm^3, the “Coagulation, time” value ([2]; 50 mg/kg, 1 month, control 152 ± 10.2) was 151 ± 13 s and the Thrombocytes ([2]; 50 mg/kg, 1 month, control 707 ± 23) was 675 ± 22. The REE ([2]; 50 mg/kg, 2 months, control 1.4 ± 0.2) was 1.6 ± 0.3 mm/h, the Stab neutrophil ([2]; 50 mg/kg, 2 months, control 2.4 ± 0.4) was 1.9 ± 0.4% and the Reticulocytes ([2]; 50 mg/kg, 2 months, control 2.9 ± 0.2) was 3.1 ± 0.1%. For the same molecule, the Eosinophiles ([2]; 50 mg/kg, 2 months, control 4.4 + 1.2) was 4.2 ± 0.3%, the Erythrocytes ([2]; 50 mg/kg, 2 months, control 6.1 ± 0.1) was 6.2 ± 0.1 mln/mm^3 and the Hemoglobin ([2]; 50 mg/kg, 2 months, control 11.4 ± 0.2) was 11.0 ± 0.1 mmol/L. The Leukocyte ([2]; 50 mg/kg, 2 months, control 19.1 ± 1.9) was 16.7 ± 1.2 thousand/mm^3, the Haematocrite ([2]; 50 mg/kg, 2 months, control 45.9 ± 1.8) was 47.5 ± 1.2% and the “Average volume of erythrocytes” value ([2]; 50 mg/kg, 2 months, control 74.6 + 1.9) was 78.5 ± 1.4 Mkm^3. The “Coagulation, time” value ([2]; 50 mg/kg, 2 months, control 316 ± 8) was 319 ± 12 s, the Thrombocytes ([2]; 50 mg/kg, 2 months, control 593 ± 14) was 609 ± 18 and the Basophiles ([2]; 500 mg/kg) was 0%. It also gave a Juveniles ([2]; 500 mg/kg) of 0%, a Stab neutrophil ([2]; 500 mg/kg, 1 month, control 0.8 ± 0.4) of 0.9 ± 0.4% and an REE ([2]; 500 mg/kg, 1 month, control 2.2 ± 0.4) of 2.2 ± 0.3 mm/h. It also gave a Reticulocytes ([2]; 500 mg/kg, 1 month, control 2.8%0.3) of 3.0 ± 0.2%, an Eosinophiles ([2]; 500 mg/kg, 1 month, control 4.0 + 0.3) of 3.5 ± 1.0% and an Erythrocytes ([2]; 500 mg/kg, 1 month, control 5.6 ± 0.1) of 5.7 ± 0.1 mln/mm^3. For the same molecule, the Hemoglobin ([2]; 500 mg/kg, 1 month, control 10.5 ± 0.2) was 10.6 ± 0.1 mmol/L, the Leukocyte ([2]; 500 mg/kg, 1 month, control 17.4 ± 1.3) was 17.1 ± 0.9 thousand/mm^3 and the Haematocrite ([2]; 500 mg/kg, 1 month, control 45.9 ± 1.7) was 47.9 ± 1.8%. The “Average volume of erythrocytes” value ([2]; 500 mg/kg, 1 month, control 81.4 ± 1.7) was 82.3 ± 1.5 Mkm^3, the “Coagulation, time” value ([2]; 500 mg/kg, 1 month, control 152 ± 10.2) was 157 ± 14 s and the REE ([2]; 500 mg/kg, 2 months, control 1.4 ± 0.2) was 2.0 ± 0.1 mm/h. The Stab neutrophil ([2]; 500 mg/kg, 2 months, control 2.4 ± 0.4) was 1.1 ± 0.6%, the Reticulocytes ([2]; 500 mg/kg, 2 months, control 2.9 ± 0.2) was 3.4 ± 0.2% and the Eosinophiles ([2]; 500 mg/kg, 2 months, control 4.4 + 1.2) was 4.1 ± 1.3%. For the same molecule, the Erythrocytes ([2]; 500 mg/kg, 2 months, control 6.1 ± 0.1) was 6.5 ± 0.2 mln/mm^3, the Hemoglobin ([2]; 500 mg/kg, 2 months, control 11.4 ± 0.2) was 12.1 ± 0.4 mmol/L and the Leukocyte ([2]; 500 mg/kg, 2 months, control 19.1 ± 1.9) was 18.7 ± 1.7 thousand/mm^3. For the same molecule, the Haematocrite ([2]; 500 mg/kg, 2 months, control 45.9 ± 1.8) was 52.5 ± 1.7%, the “Average volume of erythrocytes” value ([2]; 500 mg/kg, 2 months, control 74.6 + 1.9) was 80.1 ± 1.0 Mkm^3 and the Thrombocytes ([2]; 500 mg/kg, 2 months, control 593 ± 14) was 639 ± 34. For the same molecule, the “γ-GTP in blood plasma, Ci” value ([3]; Control + compound) was 8.14 ± 2.64 mE/l, the “ALT in blood plasma, Ci” value ([3]; Control + compound) was 113.84 ± 2.0 mE/l and the “AST in blood plasma, Ci” value ([3]; Control + compound) was 174.82 ± 4.91 mE/l. The “γ-GTP in blood plasma, Ci” value ([3]; control + Morphine + Compound) was 10.32 ± 2.67 mE/l, the “ALT in blood plasma, Ci” value ([3]; control + Morphine + Compound) was 120.84 ± 5.20 mE/l and the “AST in blood plasma, Ci” value ([3]; control + Morphine + Compound) was 193.58 ± 14.18 mE/l.
